The results in this text go back to ChEMBL document CHEMBL1149932, “DNA - gyrase inhibition and antibacterial activity of fluoro-quinolones: influence of the position of the fluorine(s)” (1992).

In brackets after ≈: the same amount, converted by molar mass.

Assay [1] has as its system Haemophilus influenzae. The assay is described as follows: (§1) In vitro antibacterial activity expressed as MIC against Haemophilus influenzae. Type of assay: functional.
The test system of assay [2] is Providencia rettgeri. The assay is described as follows: (§2) In vitro antibacterial activity expressed as MIC against Providencia rettgeri. It is filed as functional.
Another assay deals with Morganella morganii. The experiment in a line: In vitro antibacterial activity expressed as MIC against Morganella morganii II. Type of assay: functional.
The test system of the next assay is Staphylococcus aureus. The assay is described as follows: In vitro antibacterial activity expressed as MIC against Staphylococcus aureus. It is filed as functional.
The subject of a further assay is Providencia stuartii. The assay is described as follows: In vitro antibacterial activity expressed as MIC against Providencia stuartii II. It is filed as functional.
Assay [3] concerns the target T1, DNA gyrase (Escherichia coli) (UniProt P0AES6+P0AES4). The assay is described as follows: In vitro antibacterial activity expressed as MIC against Escherichia coli HR DNA gyrase. Type of assay: protein-complex assay.
The test system of a further assay is Serratia marcescens. The assay is described as follows: In vitro antibacterial activity expressed as MIC against Serratia marcescens. It is filed as functional.
In a further assay the test system is Streptococcus pneumoniae. The assay is described as follows: In vitro antibacterial activity expressed as MIC against Streptococcus pneumoniae. Type of assay: functional.
A further assay relates to Escherichia coli. The experiment in a line: In vitro antibacterial activity expressed as MIC against Escherichia coli. It is filed as functional.
A short description of assay [4]: In vitro antibacterial activity expressed as MIC against Clostridium perfringens. Type of assay: functional.
The test system of assay [5] is Staphylococcus epidermidis. The assay is described as follows: In vitro antibacterial activity expressed as MIC against Staphylococcus epidermidis. Type of assay: functional.
Assay [6] relates to Proteus mirabilis. The assay is described as follows: (§3) In vitro antibacterial activity expressed as MIC against Proteus mirabilis. It is filed as functional.
The target in assay [7] is T1, DNA gyrase (Escherichia coli). The assay is described as follows: In vitro inhibitory least concentration which show effect against Escherichia coli HR DNA gyrase. It is filed as protein-complex assay.
The next assay relates to Pseudomonas aeruginosa. The experiment in a line: In vitro antibacterial activity expressed as MIC against Pseudomonas aeruginosa. It is filed as functional.
For a further assay, the system named is Enterococcus faecalis. The experiment in a line: In vitro antibacterial activity expressed as MIC against Enterococcus faecalis. It is filed as functional.
Assay [8] relates to Klebsiella aerogenes. The experiment in a line: (§4) In vitro antibacterial activity expressed as MIC against Enterobacter aerogenes. It is filed as functional.
Assay [9] deals with Klebsiella oxytoca. The assay is described as follows: (§5) In vitro antibacterial activity expressed as MIC against Klebsiella oxytoca. It is filed as functional.
Assay [10] deals with T1, DNA gyrase (Escherichia coli). The experiment in a line: In vitro inhibitory concentration which show total effect against Escherichia coli HR DNA gyrase. It is filed as protein-complex assay.
Assay [11] has as its system Klebsiella oxytoca. The assay is described as §5.
The subject of assay [12] is Haemophilus influenzae. Described as §1.
Assay [13] concerns Klebsiella aerogenes. Described as §4.
The subject of assay [14] is Providencia rettgeri. The description is as §2.
The test system of assay [15] is Proteus mirabilis. The assay is described as §3.

Consider `N[C@H]1CCN(c2cc(F)c3c(=O)c(C(=O)O)cn(C4CC4)c3c2F)C1`, for which the MIC was 0.06 µg/mL (≈ 0.172 µM) in the assay with Haemophilus influenzae [1]; 8 µg/mL (≈ 22.9 µM) against Providencia rettgeri [2]; 0.06 µg/mL (≈ 0.172 µM) in the assay on Morganella morganii; 1 µg/mL (≈ 2.86 µM) against Staphylococcus aureus; 0.5 µg/mL (≈ 1.43 µM) against Providencia stuartii; 0.078 µg/mL (≈ 0.223 µM) in assay [3]. In addition, the MIC in the assay on Serratia marcescens was 0.25 µg/mL (≈ 0.716 µM); in the assay on Streptococcus pneumoniae, 4 µg/mL (≈ 11.5 µM); against Escherichia coli it was 0.06 µg/mL (≈ 0.172 µM); in assay [4], 1 µg/mL (≈ 2.86 µM); in assay [5] it was 0.5 µg/mL (≈ 1.43 µM); with Proteus mirabilis [6], 0.13 µg/mL (≈ 0.372 µM). Moreover, the MIC in the assay on Pseudomonas aeruginosa was determined as 2 µg/mL (≈ 5.73 µM); against Enterococcus faecalis it was 4 µg/mL (≈ 11.5 µM); against Klebsiella aerogenes [8] it was 0.25 µg/mL (≈ 0.716 µM); against Klebsiella oxytoca [9], 0.5 µg/mL (≈ 1.43 µM). Moreover, the IC0 in [7] worked out at 0.32 µg/mL. Further, in assay [10], the IC100 was found to be 10 µg/mL.

With `N[C@H]1CCN(c2cc(F)c3c(=O)c(C(=O)O)cn(C4CC4)c3c2)C1`, the MIC with Haemophilus influenzae [1] turned out to be 0.13 µg/mL (≈ 0.392 µM); against Providencia rettgeri [2], 16 µg/mL (≈ 48.3 µM); against Morganella morganii, 0.25 µg/mL (≈ 0.754 µM); against Staphylococcus aureus, 8 µg/mL (≈ 24.1 µM); in the assay on Providencia stuartii, 1 µg/mL (≈ 3.02 µM); in assay [3], 0.156 µg/mL (≈ 0.471 µM). Also, the MIC with Serratia marcescens turned out to be 0.5 µg/mL (≈ 1.51 µM); with Streptococcus pneumoniae, 4 µg/mL (≈ 12.1 µM); against Escherichia coli, 0.25 µg/mL (≈ 0.754 µM); in assay [5] it was 8 µg/mL (≈ 24.1 µM); against Proteus mirabilis [6] it was 0.5 µg/mL (≈ 1.51 µM); against Pseudomonas aeruginosa, 4 µg/mL (≈ 12.1 µM). The MIC against Enterococcus faecalis was 16 µg/mL (≈ 48.3 µM); in the assay with Klebsiella aerogenes [8], 0.5 µg/mL (≈ 1.51 µM); with Klebsiella oxytoca [9] it was 1 µg/mL (≈ 3.02 µM). The IC0 in assay [7] was 0.64 µg/mL. In assay [10], the IC100 stood at 20 µg/mL.

In assay [3], `CCn1cc(C(=O)O)c(=O)c2cc(F)c(N3CCN(C)CC3)cc21` had an MIC of 0.019 µg/mL (≈ 0.057 µM). In [10], this molecule showed an IC0 of 0.64 µg/mL and an IC100 of 20 µg/mL.

On to `N[C@H]1CCN(c2ccc3c(=O)c(C(=O)O)cn(C4CC4)c3c2)C1`, for which the MIC stood at 0.08 µg/mL (≈ 0.255 µM) against Haemophilus influenzae [1]; 8 µg/mL (≈ 25.5 µM) with Providencia rettgeri [2]; 0.13 µg/mL (≈ 0.415 µM) in the assay on Morganella morganii; 0.5 µg/mL (≈ 1.6 µM) in the assay with Staphylococcus aureus; 1 µg/mL (≈ 3.19 µM) in the assay on Providencia stuartii; 0.009 µg/mL (≈ 0.0287 µM) in [3]. For the same molecule, the MIC in the assay with Serratia marcescens was 0.5 µg/mL (≈ 1.6 µM); with Streptococcus pneumoniae, 2 µg/mL (≈ 6.38 µM); with Escherichia coli, 0.03 µg/mL (≈ 0.0957 µM); in assay [5], 0.25 µg/mL (≈ 0.798 µM); in the assay on Proteus mirabilis [6] it was 0.13 µg/mL (≈ 0.415 µM); with Pseudomonas aeruginosa it was 0.5 µg/mL (≈ 1.6 µM). The MIC with Enterococcus faecalis was 4 µg/mL (≈ 12.8 µM); in the assay on Klebsiella aerogenes [8] it was 0.06 µg/mL (≈ 0.191 µM); in the assay on Klebsiella oxytoca [9], 0.25 µg/mL (≈ 0.798 µM). In [7], the IC0 was 0.32 µg/mL. In assay [10], the IC100 stood at 20 µg/mL.

Turning to `N[C@H]1CCN(c2cc3c(cc2F)c(=O)c(C(=O)O)cn3C2CC2)C1`, the MIC in the assay with Haemophilus influenzae [1] came out at 0.002 µg/mL (≈ 0.00604 µM); against Providencia rettgeri [2] it was 0.5 µg/mL (≈ 1.51 µM); in the assay with Morganella morganii, 0.016 µg/mL (≈ 0.0483 µM); in the assay with Staphylococcus aureus, 0.06 µg/mL (≈ 0.181 µM); in the assay with Providencia stuartii it was 0.03 µg/mL (≈ 0.0905 µM); in assay [3], 0.005 µg/mL (≈ 0.0151 µM). For the same molecule, the MIC against Serratia marcescens was found to be 0.03 µg/mL (≈ 0.0905 µM); with Streptococcus pneumoniae it was 0.13 µg/mL (≈ 0.392 µM); against Escherichia coli, 0.008 µg/mL (≈ 0.0241 µM); in assay [4], 0.25 µg/mL (≈ 0.754 µM); in assay [5] it was 0.03 µg/mL (≈ 0.0905 µM); with Proteus mirabilis [6], 0.03 µg/mL (≈ 0.0905 µM). Also, the MIC is 0.25 µg/mL (≈ 0.754 µM) against Pseudomonas aeruginosa, 0.25 µg/mL (≈ 0.754 µM) in the assay on Enterococcus faecalis, 0.016 µg/mL (≈ 0.0483 µM) with Klebsiella aerogenes [8] and 0.03 µg/mL (≈ 0.0905 µM) against Klebsiella oxytoca [9]. Further, the IC0 in assay [7] worked out at 0.24 µg/mL. Also, the IC100 in [10] was determined as 20 µg/mL.

Turning to `O=C(O)c1cn(C2CC2)c2cc(N3CCNCC3)c(F)cc2c1=O` [CIPROFLOXACIN], the MIC in the assay with Klebsiella oxytoca [11] was found to be 0.06 µg/mL (≈ 0.181 µM); in the assay with Morganella morganii, 0.08 µg/mL (≈ 0.241 µM); against Staphylococcus aureus it was 0.25 µg/mL (≈ 0.754 µM); with Haemophilus influenzae [12] it was 0.03 µg/mL (≈ 0.0905 µM); in the assay on Klebsiella aerogenes [13], 0.03 µg/mL (≈ 0.0905 µM); in the assay on Providencia stuartii, 0.03 µg/mL (≈ 0.0905 µM). Moreover, the MIC in assay [3] is 0.009 µg/mL (≈ 0.0272 µM); in the assay with Providencia rettgeri [14], 0.5 µg/mL (≈ 1.51 µM); in the assay on Serratia marcescens, 0.03 µg/mL (≈ 0.0905 µM); against Streptococcus pneumoniae it was 0.25 µg/mL (≈ 0.754 µM); in [5], 0.5 µg/mL (≈ 1.51 µM); against Enterococcus faecalis, 0.5 µg/mL (≈ 1.51 µM). The molecule further displayed an MIC in the assay on Proteus mirabilis [15] of 0.008 µg/mL (≈ 0.0241 µM). Besides, the IC0 in assay [10] is 0.12 µg/mL. Moreover, the IC100 in assay [10] was 10 µg/mL.

As for `CCn1cc(C(=O)O)c(=O)c2ccc(C)nc21`, the MIC in assay [3] was 2.5 µg/mL (≈ 10.8 µM). In assay [10], the IC0 stood at 25 µg/mL and the IC100 turned out to be 200 µg/mL.

For the molecule `N[C@H]1CCN(c2ccc3c(=O)c(C(=O)O)cn(C4CC4)c3c2F)C1`, the MIC turned out to be 0.007 µg/mL (≈ 0.0211 µM) against Haemophilus influenzae [1]; 1 µg/mL (≈ 3.02 µM) against Providencia rettgeri [2]; 0.015 µg/mL (≈ 0.0453 µM) with Morganella morganii; 0.06 µg/mL (≈ 0.181 µM) in the assay on Staphylococcus aureus; 0.06 µg/mL (≈ 0.181 µM) against Providencia stuartii; 0.009 µg/mL (≈ 0.0272 µM) in assay [3]. Also, the MIC in the assay on Serratia marcescens is 0.03 µg/mL (≈ 0.0905 µM); against Streptococcus pneumoniae, 0.5 µg/mL (≈ 1.51 µM); in the assay on Escherichia coli, 0.007 µg/mL (≈ 0.0211 µM); in assay [4], 0.5 µg/mL (≈ 1.51 µM); in [5], 0.125 µg/mL (≈ 0.377 µM); against Proteus mirabilis [6], 0.03 µg/mL (≈ 0.0905 µM). The MIC against Pseudomonas aeruginosa worked out at 0.25 µg/mL (≈ 0.754 µM); in the assay on Enterococcus faecalis it was 0.25 µg/mL (≈ 0.754 µM); in the assay on Klebsiella aerogenes [8] it was 0.03 µg/mL (≈ 0.0905 µM); in the assay on Klebsiella oxytoca [9], 0.06 µg/mL (≈ 0.181 µM). The IC0 in assay [7] amounted to 0.32 µg/mL. The IC100 in assay [10] came out at 10 µg/mL.
